Holding throughout (test): growth of human tumour cells (NCI), 48 h
The test system of assay [1] is SNB-75 CNS.
The test system of assay [2] is OVCAR-8 ovarian.
Assay [3] relates to HCC-2998 colon.
For assay [4], the system named is BT-549 breast.
For assay [5], the system named is TK-10 renal.
For assay [6], the system named is A549 NSCLC.
In assay [7] the test system is SW-620 colon.
Assay [8] deals with SR leukemia.
Assay [9] concerns SNB-19 CNS.
For assay [10], the system named is MCF7 breast.
Assay [11] deals with M14 melanoma.
Assay [12] deals with DU-145 prostate.
The test system of assay [13] is NCI-H460 lung.
In assay [14] the test system is T-47D breast.
Assay [15] has as its system HCT-15 colon.
Assay [16] relates to SK-OV-3 ovarian.
For assay [17], the system named is UACC-62 melanoma.

Nine molecules from PubChem BioAssay (NCI) can be followed below.

SMILES strings stand for the structures. Where “and” joins values, the source holds several entries; their conditions need not be identical. Identical values can stand only once.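 Briefly, cells in 96-well plates were exposed to five compound concentrations for 48 h, and endpoints were estimated by linear interpolation. Here, GI50 denotes the concentration required for 50% inhibition of growth. TGI is the concentration that stops growth completely.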 Some results are limits rather than exact numbers.

Turning to `Cc1ccc(/C=C2/N=C(N/N=C\C(O)C(O)C(O)CO)NC2=O)cc1` (stereo not drawn), the TGI in assay [1], in assay [2], in assay [3], in assay [4], in assay [5] and in assay [6] was more than 100 µM throughout. For the same molecule, the TGI in [7], in assay [8], in assay [9], in assay [10], in assay [11] and in [12] was more than 100 µM throughout. Further, the TGI in assay [13], in assay [14], in assay [15] and in [16] was more than 100 µM each time. Further, in assay [3], the GI50 is > 100 µM and 30.9 µM.

As to `CC1C2CCC3C(O)C2(CC(O)C2(O)C1CC(O)C2(C)C)CC3(C)O` (stereo not drawn), the TGI in assay [2], in [3], in assay [4], in assay [5], in [6] and in assay [7] was more than 100 µM throughout. Also, the TGI in assay [8], in assay [17], in [9], in assay [10], in [11] and in assay [12] was more than 100 µM throughout. Besides, the TGI in [13], in [14], in assay [15] and in assay [16] was more than 100 µM each time.

On to `O=C1c2c(Br)sc(Br)c2[C@@H](Cl)[C@H]1Cl`, for which the TGI was 34.1 µM in [1]; 42.5 µM in assay [2]; 39.3 µM in [4]; 87.3 µM in assay [5]; 79.7 µM in assay [6]; more than 100 µM in assay [7]. In addition, the TGI in [8] turned out to be 9.14 µM; in assay [17], 34.6 µM; in assay [9] it was 38.5 µM; in [10], 53.5 µM; in assay [11], 39.1 µM; in assay [12], 35.9 µM. Also, the TGI was 40.9 µM in [13], 44.8 µM in assay [14], 71.3 µM in assay [15] and 36.3 µM in assay [16].

On to `O=c1[nH]nc(-c2ccccc2)n1/N=C/c1ccco1`, for which the TGI in assay [1] is more than 100 µM; in [2], more than 100 µM; in assay [4] it was 94.2 µM; in assay [5], more than 100 µM; in [6], more than 100 µM; in [7], more than 100 µM. The TGI in assay [8], in assay [17], in assay [9], in assay [10], in assay [11] and in assay [12] was more than 100 µM each time. The TGI in [13], in assay [14], in [15] and in [16] was more than 100 µM throughout.

On to `CN(C)CCCNc1ccc2nnn3c4ccc(OC(=O)c5ccccc5)cc4c(=O)c1c23`, for which the TGI was determined as 39.8 µM in assay [2]; 26.1 µM in assay [3]; 32.7 µM in [4]; 24.3 µM in [5]; 23.7 µM in assay [6]; 21.2 µM in assay [7]. Further, the TGI in assay [8] was 2.61 µM; in [17], 29.6 µM; in [9] it was 25.4 µM; in assay [10], 30 µM; in assay [11] it was 28.3 µM; in assay [12] it was 22.9 µM. The TGI in [13] was determined as 25.2 µM; in assay [14] it was 37.5 µM; in assay [15], 33.7 µM; in [16] it was 42.9 µM.

In the case of `O=C(Nn1c(-c2cccs2)nc2ccc(I)cc2c1=O)c1ccccc1`, the TGI is more than 100 µM in assay [2]; 58.6 µM in assay [3]; 51.9 µM in [4]; 63.1 µM in assay [5]; 45.1 µM in [6]; more than 100 µM in [7]. For the same molecule, the TGI was 61.4 µM in [8]; 57.3 µM in assay [17]; 64.5 µM in assay [9]; more than 100 µM in assay [10]; more than 100 µM in [11]; 46.7 µM in assay [12]. Further, the TGI was more than 100 µM in assay [13], 37.6 µM in assay [14] and more than 100 µM in [15]. For the same molecule, the figures for the GI50 in assay [10] and in assay [14] were 23.2 µM and 11.1 µM, respectively.

In the case of `COc1ccc2c(c1)CC1COc3cc(OC)ccc3C1O2` (stereo not drawn), the TGI in assay [2], in [3], in assay [4], in [5], in assay [6] and in assay [7] was more than 100 µM in each case. Moreover, the TGI in assay [8], in assay [17], in [10], in assay [11], in [12] and in assay [14] was more than 100 µM each time. The TGI in assay [15] and in assay [16] was more than 100 µM throughout.

Take `CC(=O)N1c2ccccc2C2=NN(C)C(=N)SC21` (stereo not drawn): the TGI in assay [1], in assay [2], in [3], in assay [4], in [5] and in assay [6] was more than 100 µM in each case. The TGI in assay [7], in [8], in assay [9], in assay [10], in [11] and in assay [12] was more than 100 µM throughout. Further, the TGI in [13], in assay [14] and in assay [15] was more than 100 µM in each case.

As for `Cn1nc2ccc([N+](=O)[O-])cc2[n+]1[O-]`, the TGI in assay [1], in assay [2], in assay [3], in assay [4], in assay [5] and in assay [6] was more than 100 µM each time. For the same molecule, the TGI in assay [8], in assay [17], in [9], in assay [10], in [11] and in assay [12] was more than 100 µM throughout. The TGI in [13], in [14], in [15] and in assay [16] was more than 100 µM throughout.
